Experimental data: paper PMC12164071, “Lysine targeting covalent inhibitors of malarial kinase PfCLK3” (RSC Medicinal Chemistry, 2025)
“Also recorded” adds a separate entry of the source. Read-outs that look alike come from different tables or passages of the source.

Experiments:
[1] = test system: PfCLK3 kinase domain (amino acid residues 334–699); test: Intact protein LC-MS for covalent adduct formation; type: binding, Plasmodium falciparum; conditions: for Relative Ratio, assignment apo / Relative Ratio, assignment holo (singly modified): compound 4 with C-terminal His-tag construct; for covalent adduct formation with PfCLK3 kinase domain: pH 7.4, 1:5 protein to compound ratio
Procedure: All compounds were then evaluated for covalent binding with PfCLK3 kinase domain (amino acid residues 334–699) using intact protein LC-MS (Fig. 3). Compounds were incubated at pH 7.4 in a 1 : 5 protein to compound ratio and analysed for covalent adduct formation using ESI TOF. […] Compounds 8 and 9 yielded a fully modified species at 43 957 Da, which can be attributed to the mass of the apo protein + the mass of the pyridinium product adduct. A minor mass (20–25%) of 44 378 Da was also detected, consistent with a doubly modified PfCLK3 kinase domain. This implies that cross reactivity with non-catalytic lysine residues is possible using the ethynyl benzaldehyde functionality, although a minor product. […]
dialyzing the protein into a final buffer containing 20 mM HEPES pH 7.4, 150 mM NaCl, 1 […]
PfCLK3 kinase domain (residues 334–699 with a C-terminal TEV cleavage sequence and His6-tag) was cloned into pFastBac vector and expressed and purified from Sf21 insect cells.
Cells were infected using P2 BIICs at an MOI of 0.2 and left to express for 72 h. Harvested cells were lysed and centrifuged before purifying using IMAC and SEC in a final buffer containing 20 mM HEPES pH 7.4, 150 mM NaCl, 1 mM TCEP, and 1 mM MgCl2.
Protein Mass Spectrometry
For intact protein mass spectrometry, compounds were incubated with a 5-fold excess of compound in buffer containing 20 mM HEPES pH 7.4, 150 mM NaCl, 1 mM TCEP, and 1 mM MgCl 2. 5 μL of kinase domain (1 mg/mL) was added to 25 μL of buffer before 0.12 μL of compound in a 10 mM DMSO stock was added to start the incubation. Samples were incubated at room temperature for 4 hours before 10 μL alliquots were analysed by LC-MS.
Intact protein LC-MS experiments were performed on a Synapt G2 Q-ToF instrument equipped with electrospray ionisation (Waters Corp., Manchester, UK). LC separation was achieved using an Acquity UPLC equipped with a reverse phase C4 Aeris Widepore 50 × 2.1 mm HPLC column (Phenomenex, CA, USA) and a gradient of 5–95% acetonitrile (0.1% formic acid) over 10 minutes was employed. Data analysis was performed using MassLynx v4.1 and deconvolution was performed using MaxEnt. […]

[2] = target: recombinant PfCLK3 (Plasmodium falciparum, UniProt Q8IIL5); test: TR-FRET kinase assay at Km ATP; type: biochemical; conditions: for IC50: 2 hour incubation, errors SD, N ≥ 3, * concentration response curve not complete; for kinase activity in words: Km ATP
Sequence of recombinant PfCLK3 (Q8IIL5 entry or part of it): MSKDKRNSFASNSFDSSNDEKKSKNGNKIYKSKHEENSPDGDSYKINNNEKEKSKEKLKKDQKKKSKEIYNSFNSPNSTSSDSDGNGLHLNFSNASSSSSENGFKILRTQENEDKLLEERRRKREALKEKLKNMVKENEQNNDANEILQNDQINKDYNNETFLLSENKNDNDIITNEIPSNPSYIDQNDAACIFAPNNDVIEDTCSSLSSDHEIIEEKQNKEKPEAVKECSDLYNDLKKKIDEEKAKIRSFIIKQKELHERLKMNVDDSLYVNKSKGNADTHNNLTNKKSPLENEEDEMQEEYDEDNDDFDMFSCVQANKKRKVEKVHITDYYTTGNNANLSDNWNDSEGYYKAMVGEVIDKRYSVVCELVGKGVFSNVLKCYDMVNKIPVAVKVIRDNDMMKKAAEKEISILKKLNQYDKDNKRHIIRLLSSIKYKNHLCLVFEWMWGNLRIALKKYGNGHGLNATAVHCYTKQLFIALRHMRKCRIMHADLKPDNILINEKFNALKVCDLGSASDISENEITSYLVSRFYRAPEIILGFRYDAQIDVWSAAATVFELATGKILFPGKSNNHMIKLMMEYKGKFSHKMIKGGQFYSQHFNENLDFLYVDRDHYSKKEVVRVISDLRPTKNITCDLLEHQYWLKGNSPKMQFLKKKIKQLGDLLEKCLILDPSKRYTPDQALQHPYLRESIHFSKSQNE
Procedure: All compounds were then evaluated against recombinant PfCLK3 using a TR-FRET kinase assay (Fig. 5). […]
Time Resolved Förster Resonance Energy Transfer (TR-FRET) Assay
Tr-FRET technology was used to determine kinase activity and Km ATP before profiling compounds. An 11-point half-log serial dilution of each test compound was prepared in 100% DMSO at 100X final test concentration. The dilution series were dispensed onto assay plates with liquid handling machinery using positive displacement. The final DMSO concentration in the assay was 1%. To obtain IC 50 values, full length recombinant PfCLK3 was prepared in 1X assay buffer (50 mM Hepes, 10 mM MgCl2, 1 mM EGTA, 0.01% Tween20, 2 mM TCEP) at a 2X concentration and incubated with compounds for 15 minutes at room temperature before addition of ULight-labelled peptide substrate (MBP) with Km ATP (at 2X concentration). The reaction was centrifuged and incubated for 2 hr at 37 °C. To stop the reaction, 1X Lance detection buffer was added with 1 nM Eu-labelled anti-MBP and 10 mM EDTA, and the reaction was incubated in the dark for 2 hr at room temperature to allow detection to take place. Plate output was read on a Pherastar FSX and data analysed in Graphpad Prism to a 4-parameter curve fit. […]

[3] = test system: 3D7 Plasmodium falciparum parasites; test: Ex vivo P. falciparum (3D7) inhibition assay; type: cell-based
Procedure: Compounds 4, 5, 8 and 9 were then assessed against 3D7 Plasmodium falciparum parasites (Fig. 6). […]
P. falciparum (3D7) culture and synchronisation.
P. falciparum cultures were maintained in RPMI-1640 media (Invitrogen) supplemented with 0.2% sodium bicarbonate, 0.5% Albumax II, 2.0 mM L-glutamine (Sigma) and 10 mg/L gentamycin. For continuous culture, the parasites were maintained at 4% haematocrit in human erythrocytes from 0+ blood donors and between 0.5 - 3% parasitaemia in an incubator at 37 °C, 5% carbon dioxide (CO 2), 5% oxygen (O 2) and 90% nitrogen (N 2). To obtain highly synchronous ring stage parasites for assays, cultures were double synchronised using Percoll and Sorbitol synchronisation. First, highly segmented schizonts were enriched by centrifugation on a 70% Percoll (GE Healthcare) cushion gradient. The Schizont pellet was collected and washed twice before fresh erythrocytes were added to a final haematocrit of 4%, and incubated for about 1-2 hours shaking continuously to allow merozoites egress and re-invasion of new erythrocytes. Residual schizonts were then removed by a second Percoll purification followed by treating the ring pellet with sorbitol to generate highly synchronous 1-2 hours old ring-stage parasites.
Ex vivo P. Falciparum (3D7) inhibition assay.
To determine the IC 50 of the molecules in parasites (P. falciparum 3D7) ex vivo, the molecules were diluted 1 in 3 from a starting concentration of 100 μM for 12 dilution points in triplicate. 50 μL of freshly diluted drugs, at twice the required final concentrations were aliquoted into black 96-well plates. To the compound plates, 50 μL of parasites prepared at 8% haematocrit at a parasitaemia (0.3 - 0.5%) were added and mixed by pipetting up and down several times giving a final culture volume of 100 μL at the required compound concentration (top concentration of 100 μM) and 4% haematocrit. To the ‘no compound’ control, growth media was added and uninfected erythrocytes were included on the plate as blank. The outer wells were filled with media to reduce evaporation from the experimental wells and the plates incubated for 72 hours (±2 hours) to allow the parasites sufficient time to re-invade before they are collected and frozen. For cellular washout studies, compound media was exchanged for compound-free media after 6 hours, and the parasites incubated for a […]

[4] = target: human (h)CLK2 (Homo sapiens, UniProt P49760); test: Selectivity kinase assay against hCLK2; type: biochemical; conditions: for IC50: errors SD, N ≥ 3
Sequence of human (h)CLK2 (P49760 whole entry): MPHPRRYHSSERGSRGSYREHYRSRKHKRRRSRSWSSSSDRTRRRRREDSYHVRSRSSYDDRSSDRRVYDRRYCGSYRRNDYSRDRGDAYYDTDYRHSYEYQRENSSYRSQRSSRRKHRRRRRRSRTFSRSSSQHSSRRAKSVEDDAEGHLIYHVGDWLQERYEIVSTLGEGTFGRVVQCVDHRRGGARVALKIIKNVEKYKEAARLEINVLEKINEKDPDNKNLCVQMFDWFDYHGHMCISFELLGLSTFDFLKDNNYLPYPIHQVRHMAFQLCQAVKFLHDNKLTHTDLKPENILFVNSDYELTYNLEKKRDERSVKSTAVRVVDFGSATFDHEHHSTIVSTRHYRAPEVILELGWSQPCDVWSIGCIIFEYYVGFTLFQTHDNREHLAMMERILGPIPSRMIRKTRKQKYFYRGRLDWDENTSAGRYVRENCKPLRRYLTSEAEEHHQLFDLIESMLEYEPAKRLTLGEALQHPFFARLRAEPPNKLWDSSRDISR
From the text: Given this work aims to target a conserved residue, selectivity must be derived from the reversible ligand rather than the covalent interaction.

[5] = Human cell viability assay (resazurin); conditions: HepG2, 48 hours, errors SD, N ≥ 3
Procedure: Cytotoxicity was assessed in HepG2 cells to complement the selectivity evaluations (Fig. 7). […]
Human cell viability assay.
Mycoplasma tested HepG2 cells were cultured in Dulbecco’s Modified Eagle Medium
(DMEM) with 10% fetal bovine serum, 1% non-essential AA, 1% sodium pyruvate, 1% Pen-
strep and 100ug/mL Normocin. Cultures were incubated at 37 ℃, 5% CO2. Cells were
detached using 0.05% trypsin-EDTA. 500nL of drug compound dilutions, in triplicate, were
added to 384-well, black, clear bottom assay plates using a Mosquito liquid handling
machine. Assay plates, containing compound dilutions, were seeded at 5,000 cells/well and
incubated for 48 hours. 40uM final concentration resazurin, diluted in DPBS, was added to
the assay plates which were then incubated for 4 hours and analysed using a ClariostarTM
plate reader to measure fluorescence Intensity (545-20nm/600-40nm). 3 control compounds
were included on every assay plate, Tamoxifen, Puromycin and TCMDC-135051. Maximum
signal control was obtained from wells with DMSO only and minimum signal control with
Tamoxifen 100uM. These were used to normalise data and give percentage inhibition of
metabolic activity. Experiments were performed N=3 and normalised data was grouped and a
nonlinear regression curve with four parameters was plotted using GraphPad Prism,
generating activity data. […]

[6] = pH 7.4, 1:5 protein to compound, 4 hours room temperature
[7] = 3D7, Pf3D7 parasites, 72 hours, errors SD, N ≥ 3, read-out: EC50 (3D7)
[8] = 3D7, Pf3D7 parasites, 72 hours, errors SD, N ≥ 3, read-out: pEC50 (3D7) (converted)

| Compound | Relative Ratio, assignment apo [1, 6] | IC50 ([2]; IC50 (apparent), Km ATP (5 μM)) | IC50 ([2]; pIC50, Km ATP (5 μM)) | covalent adduct formation with PfCLK3 kinase domain [1] | CC50 at 48 h ([5]; CC50 (HepG2)) | CC50 at 48 h ([5]; pCC50 (HepG2)) | also measured |
| --- | --- | --- | --- | --- | --- | --- | --- |
| CCN(CC)Cc1ccc(OC)c(-c2cc3c(-c4ccc(S(=O)(=O)F)cc4)ccnc3[nH]2)c1 [Compound 2] | 100 | 83 ± 10 nM | 83.2 nM |  |  |  |  |
| CCN(CC)Cc1ccc(OC)c(-c2cnc3[nH]cc(-c4ccc(S(=O)(=O)F)cc4)c3c2)c1 [Compound 3] | 100 | 302 ± 33 nM | 302 nM |  |  |  |  |
| CCN(CC)Cc1ccc(OC)c(-c2cnc3[nH]cc(-c4ccc(O)c(C=O)c4)c3c2)c1 [Compound 5] | 68 | 19 ± 10 nM | 19.5 nM | showed covalent adduct formation; also recorded: formed a covalent adduct with PfCLK3 | 4740 ± 3180 nM | 2690 nM | partial covalent bond formation, modification ([1]; imine adduct): 32–60%; Relative Ratio, assignment holo (singly modified) [1, 6]: 32; EC50 [3, 7]: 3260 ± 1670 nM; EC50 [3, 8]: 3240 nM; IC50 ([4]; read-out: pIC50 (hCLK2) (converted)): 11 nM; fold more potent against hCLK2 than parent S1 ([4]; relative to S1): 20 fold |
| C=CS(=O)(=O)Nc1ccc(-c2c[nH]c3ncc(-c4cc(CN(CC)CC)ccc4OC)cc23)cc1 [Compound 11] |  | 892 nM | 891 nM |  |  |  | kinase activity in words [2]: poorly active, not reaching 100% inhibition at the highest concentration tested |
| C=CC(=O)Nc1ccc(-c2c[nH]c3ncc(-c4cc(CN(CC)CC)ccc4OC)cc23)cc1 [Compound 13] | 100 | 1950 nM | 2000 nM |  |  |  | kinase activity in words [2]: significantly lower activity than all other analogues |
| CCN(CC)Cc1ccc(OC)c(-c2cc3c(-c4ccc(C(=O)O)c(C(C)C)c4)ccnc3[nH]2)c1 [Compound 1, TCMDC-135051, reference compound] |  | 17 ± 3 nM | 17.4 nM |  | 2750 ± 580 nM | 2750 nM | EC50 ([3]; 3D7, 72 h, read-out: EC50 (3D7)): 266 ± 11 nM; EC50 ([3]; 3D7, 72 h, read-out: pEC50 (3D7) (converted)): 263 nM; IC50 ([4]; IC50 (hCLK2)): 879 ± 325 nM; IC50 ([4]; pIC50 (hCLK2)): 891 nM |
| C=CC(=O)Nc1ccc(-c2ccnc3[nH]c(-c4cc(CN(CC)CC)ccc4OC)cc23)cc1 [Compound 12] | 100 |  |  |  |  |  |  |
| CCN(CC)Cc1ccc(OC)c(-c2cnc3[nH]cc(-c4ccc(C=O)c(O)c4)c3c2)c1 [Compound 7] | 100 | 83 ± 42 nM | 83.2 nM | unable to covalently bind the protein |  |  |  |
| C#Cc1ccc(-c2ccnc3[nH]c(-c4cc(CN(CC)CC)ccc4OC)cc23)cc1C=O [Compound 8] |  | 29 ± 3 nM | 28.8 nM | showed covalent adduct formation; also recorded: formed a covalent adduct with PfCLK3 | 12300 ± 2530 nM | 12300 nM | doubly modified PfCLK3 kinase domain, minor mass abundance ([1]; 44 378 Da species): 20–25%; Relative Ratio, assignment holo (doubly modified) [1, 6]: 25; Relative Ratio, assignment holo (singly modified) [1, 6]: 75; EC50 [3, 7]: 2270 ± 2890 nM; EC50 [3, 8]: 2290 nM; IC50 ([4]; read-out: IC50 (hCLK2)): 69 ± 31 nM |
| CCN(CC)Cc1ccc(OC)c(-c2cc3c(-c4ccc(C=O)c(O)c4)ccnc3[nH]2)c1 [Compound 6] | 100 | 155 ± 19 nM | 155 nM | unable to covalently bind the protein |  |  |  |
